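1) Cells in 96-well plates. 2) Compound, 48 h, 5 concentrations. 3) Linear interpolation between surrounding doses. 4) Unreached endpoint = highest concentration. GI50: concentration for 50% inhibition of growth.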 Calls of active or inactive are those of the source. Cut-off read from the data, not from the text of the source: active = GI50 up to about 1.1 µM and inactive = higher.
Columns and labels:
Assay in all cases: inhibition of tumour cell growth, NCI panel, 48 h
[1] = test system: SF-539
[2] = test system: HOP-92
[3] = test system: OVCAR-3
[4] = test system: MDA-MB-435
[5] = test system: HCT-15
[6] = test system: A549
[7] = test system: SN12C
[8] = test system: T47D
[9] = test system: NCI-H460
[10] = test system: SK-MEL-28
[11] = test system: MDA-MB-231
[12] = test system: RPMI-8226
[13] = test system: SF-268
[14] = test system: HOP-62
[15] = test system: OVCAR-5
[16] = test system: MDA-N
[17] = test system: OVCAR-4
[18] = test system: SK-OV-3
[19] = test system: Malme-3M
[20] = test system: NCI/ADR-RES

| Compound | GI50 [1] | GI50 [2] | GI50 [3] | GI50 [4] | GI50 [5] | GI50 [6] | GI50 [7] | GI50 [8] | GI50 [9] | GI50 [10] | GI50 [11] | GI50 [12] | GI50 [13] | GI50 [14] | GI50 [15] | GI50 [16] | GI50 [17] | GI50 [18] | GI50 [19] | GI50 [20] |
| --- | --- | --- | --- | --- | --- | --- | --- | --- | --- | --- | --- | --- | --- | --- | --- | --- | --- | --- | --- | --- |
| COC(=O)C1(Cc2ccc3c(c2)CCC3)Cc2ccc3c(c2C1=O)CCC3 (stereo not given) | 5.68 µM (inactive) | 4.84 µM (inactive) | 4.26 µM (inactive) | 1.73 µM (inactive) | 3.66 µM | 9.48 µM (inactive) | 12.2 µM (inactive) | 4.35 µM (inactive) | 12.7 µM (inactive) | 8.22 µM (inactive) | 5.78 µM (inactive) | 5.4 µM (inactive) | 10 µM (inactive) | 7.23 µM (inactive) | 21.1 µM (inactive) | 2.01 µM (inactive) | 7.73 µM (inactive) | 20.4 µM (inactive) | 4.02 µM (inactive) | 3.07 µM (inactive) |
| COC(=O)c1c2c(cc3c1CC1(C3)Cc3cc4c(c(C(=O)OC)c3C1)CCCC4)CCCC2 | > 100 µM (inactive) | > 100 µM (inactive) | > 100 µM (inactive) | > 100 µM (inactive) | > 100 µM | > 100 µM (inactive) | > 100 µM (inactive) | > 100 µM (inactive) | – | – | > 100 µM (inactive) | 49.8 µM (inactive) | – | > 100 µM (inactive) | > 100 µM (inactive) | > 100 µM (inactive) | > 100 µM (inactive) | > 100 µM (inactive) | > 100 µM (inactive) | > 100 µM (inactive) |
| CCOC(=O)C1=C(OS(=O)(=O)C(F)(F)F)CCCC1 | > 100 µM (inactive) | > 100 µM (inactive) | > 100 µM (inactive) | > 100 µM (inactive) | > 100 µM | > 100 µM (inactive) | – | > 100 µM (inactive) | > 100 µM (inactive) | > 100 µM (inactive) | > 100 µM (inactive) | > 100 µM (inactive) | > 100 µM (inactive) | > 100 µM (inactive) | > 100 µM (inactive) | > 100 µM (inactive) | > 100 µM (inactive) | > 100 µM (inactive) | > 100 µM (inactive) | > 100 µM (inactive) |
| CCCc1[nH]nc(C(N)=O)c1/N=N/N(C)C | 48.4 µM (inactive) | 33.3 µM (inactive) | > 100 µM (inactive) | > 100 µM (inactive) | 50.4 µM | 42.4 µM (inactive) | 48.3 µM (inactive) | 54 µM (inactive) | – | > 100 µM (inactive) | > 100 µM (inactive) | 39.4 µM (inactive) | 36.9 µM (inactive) | 58.7 µM (inactive) | – | > 100 µM (inactive) | 54.1 µM (inactive) | 59.7 µM (inactive) | 98.2 µM (inactive) | 91 µM (inactive) |
| O[C@@]1(C#Cc2ccc3c(c2)OCO3)CCC[C@H]1NCc1ccccc1 | 16 µM (inactive) | 13.7 µM (inactive) | 20.4 µM (inactive) | 21 µM (inactive) | 19.1 µM | 31.3 µM (inactive) | – | 18.7 µM (inactive) | 24.7 µM (inactive) | 17.6 µM (inactive) | 24.9 µM (inactive) | 24 µM (inactive) | 36.7 µM (inactive) | 26.5 µM (inactive) | 34.8 µM (inactive) | 16.9 µM (inactive) | 38.6 µM (inactive) | 35.7 µM (inactive) | 15.2 µM (inactive) | 16.7 µM (inactive) |
| Cc1ccc(SCC(CF)OCn2cc(F)c(=O)[nH]c2=O)cc1 (stereo not given) | > 100 µM (inactive) | > 100 µM (inactive) | > 100 µM (inactive) | > 100 µM (inactive) | > 100 µM | > 100 µM (inactive) | – | > 100 µM (inactive) | > 100 µM (inactive) | > 100 µM (inactive) | > 100 µM (inactive) | > 100 µM (inactive) | > 100 µM (inactive) | > 100 µM (inactive) | > 100 µM (inactive) | > 100 µM (inactive) | > 100 µM (inactive) | > 100 µM (inactive) | > 100 µM (inactive) | > 100 µM (inactive) |
| C=C1C(=O)OC2CC(=C)C3CC=C(C)C3CC12 (stereo not given) | 38.1 µM (inactive) | 10.5 µM (inactive) | 27.5 µM (inactive) | 15.7 µM (inactive) | 17.5 µM | 35.5 µM (inactive) | 16.2 µM (inactive) | 14.3 µM (inactive) | 28.8 µM (inactive) | 23.1 µM (inactive) | 21.5 µM (inactive) | 14.2 µM (inactive) | 34 µM (inactive) | 47 µM (inactive) | 46.7 µM (inactive) | 16.4 µM (inactive) | 27.3 µM (inactive) | 30.7 µM (inactive) | > 10 µM (inactive) | 35.5 µM (inactive) |
| O=[N+]([O-])/C(Cl)=C(\Nc1ccccc1)C(Cl)=C(Cl)Cl | 27.9 µM (inactive) | 28.9 µM (inactive) | 18.2 µM (inactive) | 18.5 µM (inactive) | 25.4 µM | 32.7 µM (inactive) | 33.9 µM (inactive) | 29.1 µM (inactive) | 39.4 µM (inactive) | 36.8 µM (inactive) | 34.4 µM (inactive) | 25.6 µM (inactive) | 32.1 µM (inactive) | 29 µM (inactive) | 40.8 µM (inactive) | 36 µM (inactive) | 41.6 µM (inactive) | 43.7 µM (inactive) | 18 µM (inactive) | 16 µM (inactive) |
| Cn1c(N=[N+]=[N-])cc(=O)n(C)c1=O | > 100 µM (inactive) | > 100 µM (inactive) | > 100 µM (inactive) | > 100 µM (inactive) | > 100 µM | > 100 µM (inactive) | > 100 µM (inactive) | > 100 µM (inactive) | > 100 µM (inactive) | – | > 100 µM (inactive) | > 100 µM (inactive) | > 100 µM (inactive) | > 100 µM (inactive) | > 100 µM (inactive) | > 100 µM (inactive) | > 100 µM (inactive) | > 100 µM (inactive) | > 100 µM (inactive) | > 100 µM (inactive) |
| O=S(=O)(O)c1cc(O)c2c(/N=C\c3ccccc3O)cc(S(=O)(=O)O)cc2c1 | > 100 µM (inactive) | > 100 µM (inactive) | > 100 µM (inactive) | > 100 µM (inactive) | > 100 µM | > 100 µM (inactive) | > 100 µM (inactive) | 82.6 µM (inactive) | > 100 µM (inactive) | > 100 µM (inactive) | > 100 µM (inactive) | > 100 µM (inactive) | > 100 µM (inactive) | > 100 µM (inactive) | > 100 µM (inactive) | > 100 µM (inactive) | > 100 µM (inactive) | > 100 µM (inactive) | > 100 µM (inactive) | > 100 µM (inactive) |
| O=S(=O)(O)c1ccc2c(/N=N\c3cccc4ccccc34)c(O)c(S(=O)(=O)O)cc2c1 | > 100 µM (inactive) | > 100 µM (inactive) | > 100 µM (inactive) | > 100 µM (inactive) | > 100 µM | > 100 µM (inactive) | – | > 100 µM (inactive) | > 100 µM (inactive) | > 100 µM (inactive) | > 100 µM (inactive) | > 100 µM (inactive) | > 100 µM (inactive) | > 100 µM (inactive) | > 100 µM (inactive) | > 100 µM (inactive) | > 100 µM (inactive) | > 100 µM (inactive) | > 61.7 µM (inactive) | > 100 µM (inactive) |
